Where “and” joins values, the source holds several entries; their conditions need not be identical. Equal values may be shown once. Read-outs that look alike come from different tables or passages of the source.
Legend:
[1] = molecular target: T1, purified liver bovine arginase (b-ARG I) (Bos taurus, UniProt Q2KJ64); test: In vitro colorimetric microassay of arginase inhibition on purified bovine liver arginase; format: biochemical; settings: for inhibition at 100 µM: read-out: b-ARG I Inhibition (%) (100 μM);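 as to all read-outs here: urea formed from L-arginine detected colorimetrically with alpha-isonitrosopropiophenone at 550 nm after 60 min at 37 °C, inhibition relative to solvent controls taken as 100% arginase activity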
T1 construct: commercially-available purified bovine arginase (b-ARG I) instead of animal tissue; purchased MP Biomedicals; host or cells: bovine liver (enzyme purified from tissue)
T1 sequence (Q2KJ64 1-322): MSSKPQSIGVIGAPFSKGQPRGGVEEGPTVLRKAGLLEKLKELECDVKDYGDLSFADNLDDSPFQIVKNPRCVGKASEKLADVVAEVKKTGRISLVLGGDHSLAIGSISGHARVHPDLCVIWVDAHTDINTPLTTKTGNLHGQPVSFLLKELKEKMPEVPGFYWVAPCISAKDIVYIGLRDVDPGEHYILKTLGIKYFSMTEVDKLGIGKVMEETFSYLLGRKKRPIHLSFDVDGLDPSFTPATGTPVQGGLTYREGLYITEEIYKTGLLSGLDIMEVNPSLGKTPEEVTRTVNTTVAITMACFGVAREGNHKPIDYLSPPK

[2] = molecular target: T2, b-ARG I (Bos taurus, UniProt Q2KJ64); test: Enzyme kinetic study and determination of Ki values on b-ARG I; format: biochemical, bovine; settings: for Type of Inhibition: Lineweaver–Burk, Dixon and Cornish–Bowden plots
T2 construct: commercially-available purified bovine arginase (b-ARG I) instead of animal tissue; purchased MP Biomedicals; host or cells: bovine liver (enzyme purified from tissue)
T2 sequence (Q2KJ64 1-322): T1 sequence (Q2KJ64 1-322)

[3] = molecular target: T3, recombinant human arginase I (h-ARG I) (Homo sapiens, UniProt P05089); test: In vitro colorimetric microassay of arginase inhibition on recombinant human arginase I; format: biochemical
T3 construct: purchased Interchim BXC572/n P0408M10
T3 sequence (P05089 1-322): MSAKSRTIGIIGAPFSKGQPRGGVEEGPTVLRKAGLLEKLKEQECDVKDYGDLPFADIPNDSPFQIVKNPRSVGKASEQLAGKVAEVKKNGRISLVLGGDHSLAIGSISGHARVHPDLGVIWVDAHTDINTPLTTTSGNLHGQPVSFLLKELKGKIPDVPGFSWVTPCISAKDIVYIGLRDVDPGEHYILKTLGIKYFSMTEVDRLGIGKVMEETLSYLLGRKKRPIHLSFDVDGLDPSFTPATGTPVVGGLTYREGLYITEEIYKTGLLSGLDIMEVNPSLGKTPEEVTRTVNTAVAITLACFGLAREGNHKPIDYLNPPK

[4] = 100 μM final concentration, three separate in-duplicate experiments
[5] = purified bovine liver arginase, three separate in-triplicate experiments, read-out: IC50 (b-ARG I)
[6] = b-ARG I, Cheng–Prusoff equation, [S] = 14.3 mM L-arginine, Km = 55.5 ± 10.5 µM, read-out: Ki

Row | SMILES | inhibition at 100 µM [1, 4] [%] | IC50 [1, 5] [µM] | other results
1 | O=C(/C=C/c1ccc(O)c(O)c1)O[C@@H]1C[C@](O)(C(=O)O)C[C@@H](O)[C@H]1O [CGA, chlorogenic acid, reference compound] |  |  | IC50 ([1]; IC50 (b-ARG I), purified bovine liver arginase, three separate in-triplicate experiments): < 50 µM and 10.6 µM; inhibition at 100 µM [1]: 71 ± 1%; Ki [2]: 8.4 ± 1.2 µM; Type of Inhibition ([2]; b-ARG I): competitive
2 | O=C(O)/C=C/c1ccc(O)c(O)c1 [Caffeic acid, reference compound] |  |  | IC50 [1]: 86.7 ± 8 µM
3 | COc1cc(/C=C/C(=O)NCCc2ccccc2)ccc1O [Compound 2, (E)-N-(2-Phenylethyl)-3-methoxy-4-hydroxycinnamide] | 37 ± 4 |  | 
4 | O=C(/C=C/c1ccc(O)cc1)NCCc1ccccc1 [Compound 3, (E)-N-(2-Phenylethyl)-4-hydroxycinnamide] | 31 ± 4 |  | 
5 | COc1cc(/C=C/C(=O)NCCc2ccccc2)cc(OC)c1OC [Compound 4, (E)-N-(2-Phenylethyl)-3,4,5-trimethoxycinnamide] | 35 ± 2 |  | 
6 | O=C(/C=C/c1ccccc1)NCCc1ccccc1 [Compound 5, (E)-N-(2-Phenylethyl)cinnamide] | 34 ± 2 |  | 
7 | COc1cc(/C=C/C(=O)NCCc2ccc(O)cc2)cc(OC)c1OC [Compound 9, (E)-N-(4-Hydroxyphenethyl)-3,4,5-trimethoxycinnamide] | 30 ± 2 |  | 
8 | COc1cc(/C=C/C(=O)NCCc2ccc(O)c(O)c2)cc(OC)c1OC [Compound 14, (E)-N-(3,4-Dihydroxyphenethyl)-3,4,5-trimethoxycinnamide] | 53 ± 1 | 193.6 ± 1.4 | 
9 | COC(=O)C(Cc1ccc(O)c(O)c1)NC(=O)C=Cc1ccc(O)c(O)c1 (stereo not shown) [Compound 18, 3-(3,4-Dihydroxyphenyl)-2-[3-(3,4-dihydroxyphenyl)-acryloylamino]-propionic acid methyl ester] | 62 ± 1 | 41.9 ± 1.3 | 
10 | COC(=O)[C@H](CS)NC(=O)/C=C/c1ccc(O)c(O)c1 [Compound 19, (E)-N-(3,4-Dihydroxycinnamoyl)-L-cysteine methyl ester] | 67 ± 1 | 37 ± 1.3 | 
11 | N=C(NO)NCC[C@H](N)C(=O)O [nor-NOHA, N^ω-hydroxy-nor-L-arginine, reference compound] | 99 ± 1 | 1.7 ± 0.2 | Ki [2, 6]: 1.3 ± 0.1 µM; Type of Inhibition ([2]; b-ARG I): competitive

Further lines, with some results ahead:

Row | inhibition at 100 µM [1, 4] [%] | IC50 [1, 5] [µM] | SMILES | other results
12 | 64 ± 2 | 6.9 ± 1.3 | O=C(/C=C/c1ccc(O)c(O)c1)NCCc1ccccc1 [Compound 1, (E)-N-(2-Phenylethyl)-3,4-dihydroxycinnamide] | IC50 [3]: 60.3 ± 7.8 µM; Ki [2, 6]: 5.5 ± 1 µM; Type of Inhibition ([2]; b-ARG I, listed as CAPA): competitive inhibitor; Type of Inhibition ([2]; b-ARG I, listed as CAPA (1)): competitive
13 | 58 ± 2 | 22.1 ± 1.6 | O=C(/C=C/c1ccc(O)c(O)c1)NCCc1ccc(O)cc1 [Compound 6, (E)-N-(2-(4-Hydroxyphenyl)ethyl)-3,4-dihydroxycinnamide] | 
14 | 24 ± 2 |  | COc1cc(/C=C/C(=O)NCCc2ccc(O)cc2)ccc1O [Compound 7, (E)-N-(4-Hydroxyphenethyl)-3-methoxy-4-hydroxycinnamide] | 
15 | 40 ± 2 |  | O=C(/C=C/c1ccc(O)cc1)NCCc1ccc(O)cc1 [Compound 8, (E)-N-(4-Hydroxyphenethyl)-4-hydroxycinnamide] | 
16 | 34 ± 3 |  | O=C(/C=C/c1ccccc1)NCCc1ccc(O)cc1 [Compound 10, (E)-N-(4-Hydroxyphenethyl)-cinnamide] | 
17 | 62 ± 3 | 115 ± 1.3 | O=C(/C=C/c1ccc(O)c(O)c1)NCCc1ccc(O)c(O)c1 [Compound 11, (E)-N-(3,4-Dihydroxyphenethyl)-3,4-dihydroxycinnamide] | 
18 | 61 ± 3 | 198.7 ± 1.4 | COc1cc(/C=C/C(=O)NCCc2ccc(O)c(O)c2)ccc1O [Compound 12, (E)-N-(3,4-Dihydroxyphenethyl)-3-methoxy-4-hydroxycinnamide] | 
19 | 54 ± 1 | 170.4 ± 1.7 | O=C(/C=C/c1ccc(O)cc1)NCCc1ccc(O)c(O)c1 [Compound 13, (E)-N-(3,4-Dihydroxyphenethyl)-4-hydroxycinnamide] | 
20 | 68 ± 3 | 39.3 ± 1.4 | O=C(/C=C/c1ccccc1)NCCc1ccc(O)c(O)c1 [Compound 15, (E)-N-(3,4-Dihydroxyphenethyl)cinnamide] | 
21 | 59 ± 1 | 35.6 ± 1.3 | O=C(/C=C/c1ccc(O)c(O)c1)Nc1ccc(O)cc1 [Compound 16, (E)-N-(4-Hydroxyphenyl)-3,4-dihydroxycinnamide] | 
22 | 52 ± 2 | 175.3 ± 1.5 | O=C(NCCc1ccc(O)cc1)c1ccc(O)c(O)c1 [Compound 17, N-(4-Hydoxyphenethyl)-3,4-dihydroxybenzamide] | 

Reference: publication PMC5085689, “Cinnamide Derivatives as Mammalian Arginase Inhibitors: Synthesis, Biological Evaluation and Molecular Docking” (International Journal of Molecular Sciences, 2016)
